Source: patent publication EP0912534B1, “MUSCARINIC ANTAGONISTS” (SCHERING CORPORATION, priority 1996, dated 1998)
pKi: −log10 of the molar value. Where two headings read alike, the source gives them in different places.

What was measured:
[1] = target: T1, cloned human m1 muscarinic receptor (Homo sapiens, UniProt P11229); assay: Muscarinic binding activity (3H-QNB displacement), m1
T1 sequence (P11229 1-460): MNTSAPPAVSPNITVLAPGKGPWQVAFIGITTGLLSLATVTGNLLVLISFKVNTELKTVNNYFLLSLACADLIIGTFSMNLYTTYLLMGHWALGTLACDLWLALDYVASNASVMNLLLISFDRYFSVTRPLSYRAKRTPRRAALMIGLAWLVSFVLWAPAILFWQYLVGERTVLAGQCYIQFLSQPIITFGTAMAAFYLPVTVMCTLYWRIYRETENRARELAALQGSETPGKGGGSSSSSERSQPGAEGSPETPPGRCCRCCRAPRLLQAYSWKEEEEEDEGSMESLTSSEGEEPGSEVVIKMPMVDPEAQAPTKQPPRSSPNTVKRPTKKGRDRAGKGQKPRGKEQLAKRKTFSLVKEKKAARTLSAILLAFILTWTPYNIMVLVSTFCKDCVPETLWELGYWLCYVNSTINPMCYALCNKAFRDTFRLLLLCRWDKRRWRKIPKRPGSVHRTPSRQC

[2] = target: T2, cloned human m4 muscarinic receptor (Homo sapiens, UniProt P08173); assay: Muscarinic binding activity (3H-QNB displacement), m4
T2 sequence (P08173 1-479): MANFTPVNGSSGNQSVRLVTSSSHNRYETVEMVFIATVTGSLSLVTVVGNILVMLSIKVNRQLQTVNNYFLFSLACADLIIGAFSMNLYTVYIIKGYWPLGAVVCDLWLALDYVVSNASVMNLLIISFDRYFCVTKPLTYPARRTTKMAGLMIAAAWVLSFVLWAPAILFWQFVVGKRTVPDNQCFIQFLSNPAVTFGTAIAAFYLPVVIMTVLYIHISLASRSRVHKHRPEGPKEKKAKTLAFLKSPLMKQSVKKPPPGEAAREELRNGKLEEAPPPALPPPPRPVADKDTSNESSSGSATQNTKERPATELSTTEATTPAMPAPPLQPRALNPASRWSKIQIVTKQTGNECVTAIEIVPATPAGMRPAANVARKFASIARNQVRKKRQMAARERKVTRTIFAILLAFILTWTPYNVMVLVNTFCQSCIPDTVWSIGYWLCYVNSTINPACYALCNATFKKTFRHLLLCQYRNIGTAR

[3] = target: T3, cloned human m2 muscarinic receptor (Homo sapiens, UniProt P08172); assay: Muscarinic binding activity (3H-QNB displacement), m2
T3 sequence (P08172 1-466): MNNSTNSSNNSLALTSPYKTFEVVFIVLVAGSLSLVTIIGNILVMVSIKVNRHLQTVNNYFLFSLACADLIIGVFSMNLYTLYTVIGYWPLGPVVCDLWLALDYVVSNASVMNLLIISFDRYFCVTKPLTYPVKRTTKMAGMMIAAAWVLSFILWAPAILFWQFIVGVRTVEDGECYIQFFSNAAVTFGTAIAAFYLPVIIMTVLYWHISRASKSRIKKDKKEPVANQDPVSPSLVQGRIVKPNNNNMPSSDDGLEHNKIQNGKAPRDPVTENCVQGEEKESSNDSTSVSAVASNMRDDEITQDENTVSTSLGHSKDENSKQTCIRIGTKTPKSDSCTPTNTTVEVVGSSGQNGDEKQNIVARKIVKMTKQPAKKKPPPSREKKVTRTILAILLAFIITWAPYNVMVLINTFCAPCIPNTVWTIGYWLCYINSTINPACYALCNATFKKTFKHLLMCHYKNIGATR

[4] = test system: Release of Acetyl Choline (ACh) from Striatum; assay: Microdialysis: release of acetylcholine from striatum of conscious rats; assay type: in vivo, male Sprague-Dawley Rats; conditions: 10 mg/kg peritoneal, 3 rats, Isomer A
Description: The skull was exposed and drilled through to the dura at a point 0.2 mm anterior and 3.0 mm lateral to the bregma. At these coordinates, a guide cannula was positioned at the outer edge of the dura through the drilled opening, lowered perpendicularly to a depth of 2.5 mm, and permanently secured with dental cement to bone screws. Following the surgery, rats were given ampicillin (40 mg/kg, ip) and individually housed in modified cages. A recovery period of approximately 3 to 7 days was allowed before the microdialysis procedure was undertaken. • Microdialysis: All of the equipment and instrumentation used to conduct in vivo microdialysis was obtained from Bioanalytical Systems, Inc. (BAS). The microdialysis procedure required the insertion through the guide cannula of a thin, needle-like perfusable probe (CMA/12.3 mm x 0.5 mm) to a depth of 3 mm in striatum beyond the end of the guide. The probe was connected beforehand with tubing to a microinjection pump (CMA-/100). Rats were collared and tethered, and, following probe insertion, were placed in a large clear plexiglass bowl with litter material and access to food and water. The probe was perfused at 2 µl/min with Ringer's buffer (NaCl 147 mM; KCI 3.0 mM; CaCl2 1.2 mM; MgCl2 1.0 mM) containing 5.5 mM glucose, 0.2 mM L-ascorbate, and 1 µM neostigmine bromide at pH 7.4. To achieve stable baseline readings, microdialysis was allowed to proceed for 90 minutes prior to the collection of fractions. Fractions (20 µl) were obtained at 10-minute intervals over a 3-hour period using a refrigerated collector (CMA/170 or 200). Following the collection of four to five baseline fractions, the drug or combination of drugs to be tested was administered to the animal. Once collection was complete, each rat was autopsied to determine how accurately the probe was placed. • Acetylcholine (ACh) analysis: The concentration of ACh in collected samples of microdialysate was determined using HPLC/electrochemical detection. Samples were auto-injected (Waters 712 Refrigerated Sample Processor) onto a polymeric analytical HPLC column (BAS, MF-6150) and eluted with 50 mM Na2HPO4, pH 8.5. To prevent bacterial growth, Kathon CG reagent (0.005%) (BAS) was included in the mobile phase. Eluate from the analytical column, containing separated ACh and choline, was then immediately passed through an immobilized enzyme reactor cartridge (BAS, MF-6151) coupled to the column outlet. The reactor contained both acetylcholinesterase and choline oxidase covalently bound to a polymeric backbone. […] Data acquisition was carried out using an IBM Model 70 computer equipped with a microchannel IEEE board. Integration and quantification of peaks were accomplished using "Maxima" chromatography software (Waters Corporation). Total run time per sample was 11 minutes at a flow rate of 1 ml/min. Retention times for acetylcholine and choline were 6.5 and 7.8 minutes respectively. To monitor and correct for possible changes in detector sensitivity during chromatography, ACh standards were included at the beginning, middle and end of each sample queue.
Increases in ACh levels are consistent with presynaptic m2 receptor antagonism.

[5] = membranes of transfected CHO cells, read-out: Ki m1
[6] = membranes of transfected CHO cells, read-out: Ki m4
[7] = membranes of transfected CHO cells, read-out: Ki m2

c1cnc(Oc2ccc3c(c2)CCC3N2CCN(C3CCCCC3)CC2)nc1 (single isomer, unassigned) [Compound 10]
pKi [1, 5]: 6.82
pKi [2, 6]: 7.77
pKi [3, 7]: 7.94

c1cnc(Oc2ccc3c(c2)CCC3N2CCN(C3CCCCC3)CC2)nc1 (single isomer, unassigned) [Compound 11]
pKi [1, 5]: 6.50
pKi [3, 7]: 7.06

COc1ccc(S(=O)(=O)c2ccc3c(c2)CCC3N2CCN(C3CCCCC3)C[C@H]2C)cc1 (single isomer, unassigned) [Compound 14]
pKi ([1]; Ki m1, membranes of transfected CHO cells): 6.95
pKi ([2]; Ki m4, membranes of transfected CHO cells): 7.80
Mean % of baseline ([4]; sample collection time 20 min (control, first baseline, before injection)): 99.47 % of baseline
Mean % of baseline ([4]; sample collection time 30 min (control, second baseline, before injection)): 100.85 % of baseline
Mean % of baseline ([4]; sample collection time 40 min (control, third baseline, before injection)): 99.71 % of baseline
Mean % of baseline ([4]; sample collection time 50 min (compounds injected at 50 minutes)): 99.20 % of baseline
Mean % of baseline ([4]; sample collection time 60 min, injected at 50 min): 100.78 % of baseline
Mean % of baseline ([4]; sample collection time 70 min, injected at 50 min): 86.66 % of baseline
Mean % of baseline ([4]; sample collection time 80 min, injected at 50 min): 95.26 % of baseline
Mean % of baseline ([4]; sample collection time 90 min, injected at 50 min): 95.90 % of baseline
Mean % of baseline ([4]; sample collection time 100 min, injected at 50 min): 102.30 % of baseline
Mean % of baseline ([4]; sample collection time 110 min, injected at 50 min): 108.24 % of baseline
Mean % of baseline ([4]; sample collection time 120 min, injected at 50 min): 85.62 % of baseline
Mean % of baseline ([4]; sample collection time 130 min, injected at 50 min): 103.94 % of baseline
Mean % of baseline ([4]; sample collection time 140 min, injected at 50 min): 99.35 % of baseline
Mean % of baseline ([4]; sample collection time 150 min, injected at 50 min): 91.47 % of baseline
Mean % of baseline ([4]; sample collection time 160 min, injected at 50 min): 90.80 % of baseline
Mean % of baseline ([4]; sample collection time 170 min, injected at 50 min): 89.0 % of baseline
Mean % of baseline ([4]; sample collection time 180 min, injected at 50 min): 83.13 % of baseline
pKi ([3]; Ki m2, membranes of transfected CHO cells): 8.21

O=S(=O)(c1ccccc1)c1ccc2c(c1)CCC2N1CCN(CCO)CC1 (stereo not shown) [Compound 1]
pKi [1, 5]: 6.45
pKi [2, 6]: 6.97
pKi [3, 7]: 7.10

O=[N+]([O-])c1ccc(Oc2ccc3c(c2)OCCC3N2CCN(C3CCCCC3)CC2)cc1 (stereo not shown) [Compound 2, 1-Cyclohexyl-4-[7-[(4-nitrophenyl)oxy]-chroman-4-yl]-piperazine]
pKi [1, 5]: 7.38
pKi [3, 7]: 7.57

Nc1ccc(Oc2ccc3c(c2)OCCC3N2CCN(C3CCCCC3)CC2)cc1 (stereo not shown) [Compound 3]
pKi [1, 5]: 7.09
pKi [2, 6]: 7.43
pKi [3, 7]: 6.89

CC(=O)Nc1ccc(Oc2ccc3c(c2)OCCC3N2CCN(C3CCCCC3)CC2)cc1 (stereo not shown) [Compound 4]
pKi [1, 5]: 6.65
pKi [2, 6]: < 6.70
pKi [3, 7]: 6.65

c1cnc(Oc2ccc3c(c2)CCCC3N2CCN(C3CCCCC3)CC2)nc1 (stereo not shown) [Compound 5, 4-Cyclohexyl-1-piperazinyl-[6-[(2-pyrimidinyl)oxy]]-1,2,3,4-tetrahydronaphthalene]
pKi [1, 5]: 6.80
pKi [2, 6]: 7.46
pKi [3, 7]: 7.68

O=[N+]([O-])c1ccc(Oc2ccc3c(c2)CCCC3N2CCN(C3CCCCC3)CC2)cc1 (stereo not shown) [Compound 6]
pKi [1, 5]: 6.20
pKi [2, 6]: 7.11
pKi [3, 7]: 7.02

Nc1ccc(Oc2ccc3c(c2)CCCC3N2CCN(C3CCCCC3)CC2)cc1 (stereo not shown) [Compound 7]
pKi [1, 5]: 6.98
pKi [2, 6]: 7.68
pKi [3, 7]: 7.59

c1cnc(Oc2ccc3c(c2)CCC3N2CCN(C3CCCCC3)CC2)nc1 (stereo not shown) [Compound 9]
pKi [1, 5]: 6.58
pKi [3, 7]: 7.46

c1cnc(Oc2ccc3c(c2)CC(CC2CCCCC2)C3N2CCN(C3CCCCC3)CC2)nc1 (stereo not shown) [Compound 12, 2-[[1-(4-Cyclohexyl-1-piperazinyl)-2-(cyclohexylmethyl)-2,3-dihydro-1H-inden-5-yl]oxy]pyrimidine]
pKi [1, 5]: 6.76
pKi [3, 7]: 7.04

COc1ccc(S(=O)(=O)c2ccc3c(c2)CCC3N2CCC(N3CCCCC3)CC2)cc1 (stereo not shown) [Compound 13]
pKi [1, 5]: 7.17
pKi [2, 6]: 7.48
pKi [3, 7]: 7.77
